Source: PubChem BioAssay (NCI)
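Compound exposure: 48 hours, 5 concentrations, 96-well plates. GI50: concentration for 50% inhibition of growth. Definition used: TGI = concentration required for complete inhibition of growth.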

Assays:
Test in all cases: inhibition of tumour cell growth, NCI panel, 48 h
[1] = test system: OVCAR-4 ovarian
[2] = test system: SF-539 CNS
[3] = test system: HS 578T breast
[4] = test system: SK-MEL-28 melanoma
[5] = test system: NCI/ADR-RES ovarian
[6] = test system: CAKI-1 renal
[7] = test system: UACC-62 melanoma
[8] = test system: SK-OV-3 ovarian
[9] = test system: SK-MEL-5 melanoma
[10] = test system: NCI-H226 lung
[11] = test system: U251 CNS
[12] = test system: UO-31 renal
[13] = test system: IGROV1 ovarian
[14] = test system: CCRF-CEM leukemia
[15] = test system: COLO 205 colon
[16] = test system: DU-145 prostate
[17] = test system: SW-620 colon
[18] = test system: HCC-2998 colon
[19] = test system: HCT-116 colon
[20] = test system: NCI-H522 lung
[21] = test system: MALME-3M melanoma
[22] = test system: TK-10 renal
[23] = test system: OVCAR-8 ovarian
[24] = test system: MDA-MB-435
[25] = test system: PC-3 prostate
[26] = test system: M14 melanoma
[27] = test system: KM12 colon
[28] = test system: OVCAR-3 ovarian
[29] = test system: T-47D breast
[30] = test system: UACC-257 melanoma
[31] = test system: SF-295 CNS
[32] = test system: A549 NSCLC
[33] = test system: RPMI-8226 leukemia
[34] = test system: LOX IMVI melanoma
[35] = test system: MDA-MB-231 breast
[36] = test system: HOP-92 NSCLC
[37] = test system: SNB-75 CNS
[38] = test system: HT29 colon
[39] = test system: 786-0 renal
[40] = test system: BT-549 breast
[41] = test system: NCI-H23 lung
[42] = test system: K-562 leukemia
[43] = test system: SR leukemia
[44] = test system: SNB-19 CNS
[45] = test system: MOLT-4 leukemia
[46] = test system: A498 renal
[47] = test system: MCF7 breast
[48] = test system: HL-60(TB) leukemia
[49] = test system: OVCAR-5 ovarian
[50] = test system: SN12C renal
[51] = test system: HCT-15 colon
[52] = test system: SK-MEL-2 melanoma
[53] = test system: ACHN renal
[54] = test system: NCI-H460 lung
[55] = test system: SF-268 CNS
[56] = test system: RXF 393 renal
[57] = test system: HOP-62 NSCLC

## CCn1cnc(C[C@H](NC(=O)[C@@H](NC(=O)Nc2cc(C(F)(F)F)cc(C(F)(F)F)c2)C(C)C)C(=O)OC)c1
[1]
  GI50: 1.83 µM
  TGI: 3.54 µM
[2]
  GI50: 3.36 µM
  TGI: > 10 µM
[3]
  GI50: 2.18 µM
  TGI: 6.11 µM
[4]
  GI50: 1.98 µM
  TGI: 4.28 µM
[5]
  GI50: > 10 µM
  TGI: > 10 µM
[6]
  GI50: > 10 µM
  TGI: > 10 µM
[7]
  GI50: 6.45 µM
  TGI: > 10 µM
[8]
  GI50: 2.06 µM
  TGI: 4.41 µM
[9]
  GI50: 4.31 µM
  TGI: > 10 µM
[10]
  GI50: 3.74 µM
  TGI: > 10 µM
[11]
  GI50: 1.98 µM
  TGI: 3.96 µM
[12]
  GI50: > 10 µM
  TGI: > 10 µM
[13]
  GI50: 2.33 µM
  TGI: 5.75 µM
[14]
  GI50: 3.38 µM
  TGI: > 10 µM
[15]
  GI50: 2.61 µM
  TGI: 7.07 µM
[16]
  GI50: 2.26 µM
  TGI: 4.84 µM
[17]
  GI50: 2.01 µM
  TGI: 4.01 µM
[18]
  GI50: 2.27 µM
  TGI: 5.32 µM
[19]
  GI50: 1.86 µM
  TGI: 3.93 µM
[20]
  GI50: 1.78 µM
  TGI: 3.98 µM
[21]
  GI50: > 10 µM
  TGI: > 10 µM
[22]
  GI50: 1.88 µM
  TGI: 3.89 µM
[23]
  GI50: 1.95 µM
  TGI: 3.74 µM
[24]
  GI50: 3.17 µM
  TGI: > 10 µM
[25]
  GI50: 1.97 µM
  TGI: 4.03 µM
[26]
  GI50: 3.54 µM
  TGI: > 10 µM
[27]
  GI50: 1.89 µM
  TGI: 3.9 µM
[28]
  GI50: 1.82 µM
  TGI: 3.44 µM
[29]
  GI50: 3.66 µM
  TGI: > 10 µM
[30]
  GI50: > 10 µM
  TGI: > 10 µM
[31]
  GI50: > 10 µM
  TGI: > 10 µM
[32]
  GI50: 3.19 µM
  TGI: > 10 µM
[33]
  GI50: 2.76 µM
  TGI: 8.45 µM
[34]
  GI50: 2.5 µM
  TGI: 7.43 µM
[35]
  GI50: 1.9 µM
  TGI: 4.11 µM
[36]
  GI50: 6.88 µM
  TGI: > 10 µM
[37]
  GI50: 1.61 µM
  TGI: 6.82 µM
[38]
  GI50: 2.02 µM
  TGI: 4.1 µM
[39]
  GI50: 1.81 µM
  TGI: 3.67 µM
[40]
  GI50: 1.78 µM
  TGI: 3.58 µM
[41]
  GI50: 2.69 µM
  TGI: > 10 µM
[42]
  GI50: 6.38 µM
  TGI: > 10 µM
[43]
  GI50: 2.38 µM
  TGI: 7.86 µM
[44]
  GI50: 1.61 µM
  TGI: 3.19 µM
[45]
  GI50: 2.99 µM
  TGI: 9.35 µM
[46]
  GI50: > 10 µM
  TGI: > 10 µM
[47]
  GI50: 1.83 µM
  TGI: 3.8 µM
[48]
  GI50: 6.18 µM
  TGI: > 10 µM
[49]
  GI50: 4.98 µM
  TGI: > 10 µM
[50]
  GI50: 1.73 µM
  TGI: 3.57 µM
[51]
  GI50: > 10 µM
  TGI: > 10 µM
[52]
  GI50: > 10 µM
  TGI: > 10 µM
[53]
  GI50: 5.94 µM
  TGI: > 10 µM
[54]
  GI50: 2.13 µM
  TGI: 4.43 µM
[55]
  GI50: 1.76 µM
  TGI: 3.4 µM
[56]
  GI50: 1.73 µM
  TGI: 3.32 µM
[57]
  GI50: 1.87 µM
  TGI: 3.65 µM
